Assay results: PubChem BioAssay AID330 (DTP/NCI, 2004)
Several values for one entry are separate records, joined by “and”; a condition that tells them apart may be missing. Identical values can stand only once. Toxic doses and inconclusive results are not listed.

Tested on: P388 leukemia ip, CD2F1 mice, survival T/C
Experiment: NCI In Vivo Anticancer Drug Screen. Data for tumor model P388 Leukemia (intraperitoneal) in CD2F1 (CDF1) mice
Details: endpoint: median survival time, higher = longer survival
Summary of the method: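 Mice carrying the transplanted tumor received test compound or vehicle. Survival was recorded in each group, and the value is the treated-group measurement divided by that of the vehicle-treated control group.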

[1] = dose: 50.0 mg/kg/injection, schedule: Q01DX009 (ip), vehicle: saline with Tween-80
[2] = dose: 100.0 mg/kg/injection, schedule: Q01DX009 (ip), vehicle: saline with Tween-80
[3] = dose: 200.0 mg/kg/injection, schedule: Q01DX009 (ip), vehicle: saline with Tween-80
[4] = dose: 60.0 mg/kg/injection, schedule: Q01DX005 (ip), vehicle: saline with Tween-80
[5] = dose: 120.0 mg/kg/injection, schedule: Q01DX005 (ip), vehicle: saline with Tween-80
[6] = dose: 240.0 mg/kg/injection, schedule: Q01DX005 (ip), vehicle: saline with Tween-80
[7] = dose: 50.0 mg/kg/injection, schedule: Q01DX005 (ip), vehicle: Klucel (hydroxypropylcellulose) (HPC)
[8] = dose: 100.0 mg/kg/injection, schedule: Q01DX005 (ip), vehicle: Klucel (hydroxypropylcellulose) (HPC)
[9] = dose: 200.0 mg/kg/injection, schedule: Q01DX005 (ip), vehicle: Klucel (hydroxypropylcellulose) (HPC)
[10] = dose: 12.5 mg/kg/injection, schedule: Q01DX009 (ip), vehicle: Klucel (hydroxypropylcellulose) (HPC)
[11] = dose: 50.0 mg/kg/injection, schedule: Q01DX009 (ip), vehicle: Klucel (hydroxypropylcellulose) (HPC)
[12] = dose: 100.0 mg/kg/injection, schedule: Q01DX009 (ip), vehicle: Klucel (hydroxypropylcellulose) (HPC)
[13] = dose: 12.5 mg/kg/injection, schedule: Q01DX009 (ip), vehicle: saline
[14] = dose: 25.0 mg/kg/injection, schedule: Q01DX009 (ip), vehicle: saline
[15] = dose: 50.0 mg/kg/injection, schedule: Q01DX009 (ip), vehicle: saline
[16] = dose: 200.0 mg/kg/injection, schedule: Q01DX009 (ip), vehicle: saline
[17] = dose: 100.0 mg/kg/injection, schedule: Q01DX009 (ip), vehicle: saline
[18] = dose: 50.0 mg/kg/injection, schedule: Q01DX005 (ip), vehicle: saline with Tween-80
[19] = dose: 100.0 mg/kg/injection, schedule: Q01DX005 (ip), vehicle: saline with Tween-80
[20] = dose: 200.0 mg/kg/injection, schedule: Q01DX005 (ip), vehicle: saline with Tween-80

## [Cl][Cu][Cl].c1ccc2c(c1)Sc1ccccc1[N+]2=c1ccc2nc3ccccc3sc-2c1
dose: 60.0 mg/kg/injection, schedule: Q01DX005 (ip), vehicle: Klucel (hydroxypropylcellulose) (HPC)
  T/C: 87 % of control
dose: 120.0 mg/kg/injection, schedule: Q01DX005 (ip), vehicle: Klucel (hydroxypropylcellulose) (HPC)
  T/C: 95 % of control

## CCOC(=O)c1ccc(NC)cc1
[1]
  T/C: 105 % of control
[2]
  T/C: 102 % of control
[3]
  T/C: 118 % of control

## O=c1[nH]c(Nc2ccccc2)c([N+](=O)[O-])c(=O)[nH]1
[4]
  T/C: 106 % of control
[5]
  T/C: 107 % of control
[6]
  T/C: 106 % of control

## Cc1ccc2ccc3ccc(CCl)nc3c2n1
dose: 3.12 micromoles/kg, schedule: Q01DX005 (ip), vehicle: other
  T/C: 95 % of control
dose: 6.25 micromoles/kg, schedule: Q01DX005 (ip), vehicle: other
  T/C: 99 % of control
dose: 12.5 micromoles/kg, schedule: Q01DX005 (ip), vehicle: other
  T/C: 102 % of control

## Cn1c(=O)c2c(nc([N+](=O)[O-])n2C)n(C)c1=O
dose: 100.0 mg/kg/injection, schedule: Q04DX003 (ip), vehicle: saline
  T/C: 104 % of control
dose: 200.0 mg/kg/injection, schedule: Q04DX003 (ip), vehicle: saline
  T/C: 100 % of control

## O=C1c2ccccc2C(=O)N1/N=C/c1ccc(O)cc1
[7]
  T/C: 101 % of control
[8]
  T/C: 99 % of control
[9]
  T/C: 100 % of control

## O=C(O)C1NCCC1Oc1ccccc1 (stereo unspecified)
[7]
  T/C: 99 % of control
[8]
  T/C: 104 % of control
[9]
  T/C: 100 % of control

## CCCCCCC(C)NCC(O)COc1cccc(C)c1 (stereo unspecified)
dose: 3.12 mg/kg/injection, schedule: Q01DX009 (ip), vehicle: Klucel (hydroxypropylcellulose) (HPC)
  T/C: 111 % of control
dose: 6.25 mg/kg/injection, schedule: Q01DX009 (ip), vehicle: Klucel (hydroxypropylcellulose) (HPC)
  T/C: 107 % of control
[10]
  T/C: 111 % of control

## CCn1c(=O)c2[nH]c(Br)nc2n(CC)c1=O
[10]
  T/C: 124 % of control
dose: 16.0 mg/kg/injection, schedule: Q01DX009 (ip), vehicle: Klucel (hydroxypropylcellulose) (HPC)
  T/C: 106 % of control
dose: 25.0 mg/kg/injection, schedule: Q01DX009 (ip), vehicle: Klucel (hydroxypropylcellulose) (HPC)
  T/C: 103 % of control and 97 % of control
dose: 32.0 mg/kg/injection, schedule: Q01DX009 (ip), vehicle: Klucel (hydroxypropylcellulose) (HPC)
  T/C: 104 % of control
[11]
  T/C: 105 % of control and 95 % of control
dose: 64.0 mg/kg/injection, schedule: Q01DX009 (ip), vehicle: Klucel (hydroxypropylcellulose) (HPC)
  T/C: 114 % of control
[12]
  T/C: 98 % of control and 103 % of control

## CCOP(=O)(OCC)C1CCCN2CCc3c([nH]c4ccccc34)C12 (stereo unspecified)
[13]
  T/C: 98 % of control
[14]
  T/C: 96 % of control
[15]
  T/C: 100 % of control and 89 % of control
[16]
  T/C: 100 % of control

## O=C1CC2C3Nc4ccccc4C3CCN2C2=C1CC(OC(=O)c1ccccc1)CC2 (stereo unspecified)
dose: 100.0 mg/kg/injection, schedule: Q04DX003 (ip), vehicle: saline sonified
  T/C: 100 % of control
dose: 200.0 mg/kg/injection, schedule: Q04DX003 (ip), vehicle: saline sonified
  T/C: 100 % of control
dose: 400.0 mg/kg/injection, schedule: Q04DX003 (ip), vehicle: saline sonified
  T/C: 95 % of control

## CC1CN(CCC#N)CC(C)O1 (stereo unspecified)
[14]
  T/C: 101 % of control
[15]
  T/C: 101 % of control
[17]
  T/C: 101 % of control
[16]
  T/C: 104 % of control

## CCCCCCC(=O)CC(SCCS)c1ccc(Cl)c(Cl)c1 (stereo unspecified)
[15]
  T/C: 102 % of control
[17]
  T/C: 89 % of control

## CC1(C(=O)O)NCCc2cc(O)c(O)cc21 (stereo unspecified)
[7]
  T/C: 104 % of control
[8]
  T/C: 104 % of control
[9]
  T/C: 103 % of control

## CC(SC(C)C(=O)N/N=C/c1c[nH]c2ccccc12)C(=O)N/N=C\c1c[nH]c2ccccc12 (stereo unspecified)
[18]
  T/C: 92 % of control
[19]
  T/C: 93 % of control
[20]
  T/C: 93 % of control

## Cc1ccc(NCn2c(=S)sc3ccccc32)cc1
[7]
  T/C: 89 % of control
[8]
  T/C: 88 % of control
[9]
  T/C: 98 % of control

## Cc1ccc(NC(=O)C2C(=O)N(c3ccc(C)c(C)c3)C(=O)C2N=N)cc1C (stereo unspecified)
dose: 100.0 mg/kg/injection, schedule: Q01DX001 (ip), vehicle: saline with Tween-80
  T/C: 100 % of control
dose: 200.0 mg/kg/injection, schedule: Q01DX001 (ip), vehicle: saline with Tween-80
  T/C: 101 % of control
dose: 400.0 mg/kg/injection, schedule: Q01DX001 (ip), vehicle: saline with Tween-80
  T/C: 91 % of control

## CC(C)SC(=S)Nc1ccc(F)cc1
dose: 50.0 mg/kg/injection, schedule: Q01DX009 (ip), vehicle: suspension in saline
  T/C: 101 % of control
dose: 100.0 mg/kg/injection, schedule: Q01DX009 (ip), vehicle: suspension in saline
  T/C: 101 % of control
dose: 200.0 mg/kg/injection, schedule: Q01DX009 (ip), vehicle: suspension in saline
  T/C: 107 % of control

## O=C1N(c2cccc(F)c2)C(=O)N1c1cccc(F)c1
[1]
  T/C: 115 % of control
[2]
  T/C: 100 % of control
[3]
  T/C: 98 % of control

## O=P(c1ccccc1)(c1ccccc1)c1ccccc1.O=P(c1ccccc1)(c1ccccc1)c1ccccc1.O=P(c1ccccc1)(c1ccccc1)c1ccccc1.O=P(c1ccccc1)(c1ccccc1)c1ccccc1.[Co+2].[O-][Cl+3]([O-])([O-])O
[1]
  T/C: 96 % of control
[2]
  T/C: 99 % of control

## Cc1cc(Br)c2c(c1N)C(=O)c1ccccc1C2=O
[11]
  T/C: 99 % of control
[12]
  T/C: 107 % of control
dose: 200.0 mg/kg/injection, schedule: Q01DX009 (ip), vehicle: Klucel (hydroxypropylcellulose) (HPC)
  T/C: 102 % of control

## N#CC(C#N)=C(O)/C(=C/c1ccc([N+](=O)[O-])cc1)NC(=O)c1ccccc1
dose: 60.0 mg/kg/injection, schedule: Q01DX005 (ip), vehicle: saline
  T/C: 95 % of control
dose: 120.0 mg/kg/injection, schedule: Q01DX005 (ip), vehicle: saline
  T/C: 100 % of control
dose: 240.0 mg/kg/injection, schedule: Q01DX005 (ip), vehicle: saline
  T/C: 95 % of control

## CCC(c1ccccc1)c1cc2c(cc1OC(C)=O)OCO2 (stereo unspecified)
[18]
  T/C: 104 % of control
[19]
  T/C: 107 % of control
[20]
  T/C: 102 % of control

## Cc1cccc(N=Nc2c(C)nn(C(=S)S)c2C)c1C
dose: 100.0 mg/kg/injection, schedule: Q04DX002 (ip), vehicle: saline with Tween-80
  T/C: 100 % of control
dose: 200.0 mg/kg/injection, schedule: Q04DX002 (ip), vehicle: saline with Tween-80
  T/C: 99 % of control
dose: 400.0 mg/kg/injection, schedule: Q04DX002 (ip), vehicle: saline with Tween-80
  T/C: 98 % of control

## Cc1c2c(nn1C)CCOC2=O
dose: 100.0 mg/kg/injection, schedule: Q01DX001 (ip), vehicle: Klucel (hydroxypropylcellulose) (HPC)
  T/C: 100 % of control
dose: 200.0 mg/kg/injection, schedule: Q01DX001 (ip), vehicle: Klucel (hydroxypropylcellulose) (HPC)
  T/C: 101 % of control
dose: 400.0 mg/kg/injection, schedule: Q01DX001 (ip), vehicle: Klucel (hydroxypropylcellulose) (HPC)
  T/C: 95 % of control

## Nc1cccc(SC(CC(=O)c2ccc(-c3ccccc3)cc2)c2ccco2)c1 (stereo unspecified)
[11]
  T/C: 97 % of control
[12]
  T/C: 101 % of control

## N#CNC1=C(C#N)C(c2ccccc2)CC(=O)N1 (stereo unspecified)
[4]
  T/C: 97 % of control
[5]
  T/C: 101 % of control
[6]
  T/C: 100 % of control

## COC(=O)c1cc(=O)n(-c2ccccc2F)c(SC)n1
dose: 25.0 mg/kg/injection, schedule: Q04DX003 (ip), vehicle: Klucel (hydroxypropylcellulose) (HPC)
  T/C: 105 % of control
dose: 50.0 mg/kg/injection, schedule: Q04DX003 (ip), vehicle: Klucel (hydroxypropylcellulose) (HPC)
  T/C: 104 % of control
dose: 100.0 mg/kg/injection, schedule: Q04DX003 (ip), vehicle: Klucel (hydroxypropylcellulose) (HPC)
  T/C: 106 % of control

## CC(C)C1=CC2=C(CC1)C1(C)CCCC(C)(C(=O)O)C1CC2 (stereo unspecified)
[2]
  T/C: 100 % of control
[3]
  T/C: 100 % of control
dose: 400.0 mg/kg/injection, schedule: Q01DX009 (ip), vehicle: saline with Tween-80
  T/C: 100 % of control

## CN(CCN(C)C(=O)CCOS(C)(=O)=O)C(=O)CCOS(C)(=O)=O
[13]
  T/C: 151 % of control
[14]
  T/C: 175 % of control
[15]
  T/C: 192 % of control and 210 % of control
[17]
  T/C: 260 % of control and 290 % of control
[16]
  T/C: 116 % of control and 297 % of control

## CN(C)c1cc(N(C)C)c(N(C)C)cc1N(C)C
[18]
  T/C: 109 % of control
[19]
  T/C: 102 % of control
[20]
  T/C: 100 % of control
